From US9186361B2, “Compounds and compositions for the treatment of parasitic diseases” (Novartis AG, priority 2013, dated 2015)

Columns and labels:
[1] = system: Leishmania donovani axenic amastigote parasites; experiment: Assay for Leishmania proliferation in vitro (axenic amastigotes, Cell TiterGlo); type: cell-based; conditions: 48 h, 2 day incubation, read-out: L. donovani amastigotes EC50
Experimental: Leishmania donovani axenic amastigote parasites are grown at 37° C., 5% CO2 in media made of RPMI 1640, 4 mM L-glutamine, 20% heat inactivated FBS, 100 units/ml of penicillin and 100 μg/ml of streptomycin, 23 μM Folic Acid, 100 μM Adenosine, 22 mM D-glucose, 25 mM MES. The pH of media is adjusted to 5.5 at 37° C. using HCl. 20 μL of media is first dispensed into 384 well plates and […] of the compounds of invention in DMSO are added to the plate wells. At the same time control compounds and DMSO are added to plates to serve as the positive and negative controls, respectively. 40 μL of parasite culture (9600 parasites) are then added to the plate wells. The plates are then placed into incubators. After 2 day incubation, 20 μL of Cell TiterGlo (Promega) is added to the plate wells. The luminescence signal of each well is measured using the Envision reader (Perkin Elmer). The percentage inhibition of 50%, EC50, is calculated for each of the compounds.

[2] = system: L. donovani HU3 strain in mouse peritoneal macrophages; experiment: Proliferation of L. donovani in mouse peritoneal macrophages (SybrGreen, high-content imaging); type: cell-based; conditions: Leishmania donovani, Peritoneal macrophage, 120 h; infected mouse peritoneal macrophages, 5 days; read-out: L. donavani Macrophage EC50
Description: The activity of a compound according to the present invention for inhibition of parasitemai can be assessed by the parasite proliferation assay. The assay measures the increase in the parasite number in the assayed plate well using a DNA intercalating dye, SYBR Green I® dye (INVITROGEN) to stain Leishmania cell nuclei. It is understood that the assays illustrate the invention without in any way limiting the scope of the invention.
L. donovani HU3 strain is propagated by infecting BALBc mice through tail vein injection with 10^7 Leishmania parasites. Infected mice are allowed to develop infection during 9-11 weeks post-infection. During this time, the parasites accumulate in the infected mouse spleens to large numbers, and the infected mice serve as the source of parasites for the in vitro measurement of compound efficacies. To assay a compound for anti-leishmanial activity, peritoneal macrophages isolated from non-infected BALBc mice are seeded into 384-well plates at density 2×10^4 macrophages per well in 25 mL of medium (RPMI1640, 10% fetal serum albumin, 10 mM HEPES, 1 mM sodium pyruvate, 1% Pen/Strep). Subsequently, the seeded plates are placed into an incubator set to maintain 37° C. temperature and atmosphere with 5% CO2. The next day, Leishmania parasites are isolated from the spleens of mice infected for 9-11 weeks and 4×10^5 isolated parasites in […] of the above media are added to each plate well. Plates are then returned into incubators and infection is allowed to proceed for 24 hours. After the infection of macrophages is completed, […] of compounds of the invention in the above medium, which also contains 5% DMSO, are added to plate wells containing infected macrophages. At the same time control compounds (miltefosine and amphotericin B) and DMSO are added to plates to serve as the positive and negative controls, respectively. After the compound addition, the plates are returned into incubator and cells infected with parasites are cultured for 5 days. At the end of cultivation, […] of 8% paraformaldehyde is added to plate wells and incubated for 15 min at room temperature. Following the incubation, the paraformaldehyde from plate wells is aspirated, and […] of PBS containing 0.2% Triton X-100 is added to wells. After 15 min incubation, the solution is aspirated from wells again, and replaced with SybrGreen Dye solution in PBS (1:125,000 dilution). Infected cells are imaged with Evotec Opera high-content microscope, and the number of parasites in well is determined by counting parasite nuclei visualized by staining with SybrGreen dye. The percentage inhibition of 50%, EC50, is calculated for each compound.
The inhibitory efficacy of the compounds of the invention against proliferation of L. donovani in mouse peritoneal macrophages is provided in Table I.

SMILES	EC50 [1]	EC50 [2]
Cc1cnc(C(=O)Nc2cnc3nc(-c4cc(NC(=O)c5ccco5)ccc4Cl)[nH]c3c2)s1 [Example 1, N-{2-[2-chloro-5-(furan-2-amido)phenyl]-1H-imidazo[4,5-b]pyridin-6-yl}-5-methyl-1,3-thiazole-2-carboxamide]	0.13 µM	0.72 µM
CC(C)OC(=O)Nc1ccc(Cl)c(-c2nc3ncc(NC(=O)OC(C)C)cc3[nH]2)c1 [Example 4, propan-2-yl N-[2-(2-chloro-5-{[(propan-2-yloxy)carbonyl]amino}phenyl)-1H-imidazo[4,5-b]pyridin-6-yl]carbamate]	0.44 µM	0.83 µM
CN(C)c1cnc2nc(-c3cc(NC(=O)c4ccco4)ccc3Cl)[nH]c2c1 [Example 13, N-{4-chloro-3-[6-(dimethylamino)-1H-imidazo[4,5-b]pyridin-2-yl]phenyl}furan-2-carboxamide]	2.35 µM	8.6 µM
Cc1ccc(C(=O)Nc2ccc(Cl)c(-c3nc4ncc(NC(=O)OC(C)C)cc4[nH]3)c2)o1 [Example 17, propan-2-yl N-{2-[2-chloro-5-(5-methylfuran-2-amido)phenyl]-1H-imidazo[4,5-b]pyridin-6-yl}carbamate]	7.6 µM	13.3 µM
CC(C)(N)COC(=O)Nc1cnc2nc(-c3cc(NC(=O)c4ccco4)ccc3Cl)[nH]c2c1 [Example 23, 2-amino-2-methylpropyl N-{2-[2-chloro-5-(furan-2-amido)phenyl]-1H-imidazo[4,5-b]pyridin-6-yl}carbamate]	21 µM	34.1 µM
O=C(Nc1ccc(Cl)c(-c2nc3ncc(NCC4CCNCC4)cc3[nH]2)c1)c1ccco1 [Example 27, N-(4-chloro-3-{6-[(piperidin-4-ylmethyl)amino]-1H-imidazo[4,5-b]pyridin-2-yl}phenyl)furan-2-carboxamide]	> 25 µM	> 50 µM
CC(C)(C)OC(=O)N1CC[C@H](CC(=O)Nc2cnc3nc(-c4cc(NC(=O)c5ccco5)ccc4Cl)[nH]c3c2)C1 [Example 28]	> 25 µM	> 50 µM
Cc1ccc(C(=O)Nc2ccc(Cl)c(-c3nc4ncc(N)cc4[nH]3)c2)o1 [Example 29, N-(3-{6-amino-1H-imidazo[4,5-b]pyridin-2-yl}-4-chlorophenyl)-5-methylfuran-2-carboxamide]	> 25 µM	> 50 µM
CC(C)(N)CNc1cnc2nc(-c3cc(NC(=O)c4ccco4)ccc3Cl)[nH]c2c1 [Example 31, N-(3-{6-[(2-amino-2-methylpropyl)amino]-1H-imidazo[4,5-b]pyridin-2-yl}-4-chlorophenyl)furan-2-carboxamide]	> 25 µM	> 50 µM
O=C(Nc1ccc(Cl)c(-c2nc3ncc(NC(=O)C4(C(F)(F)F)CCC4)cc3[nH]2)c1)c1ccco1 [Example 37, N-[4-chloro-3-(6-{[1-(trifluoromethyl)cyclobutane]amido}-1H-imidazo[4,5-b]pyridin-2-yl)phenyl]furan-2-carboxamide]	0.85 µM	0.53 µM
CN(C)CC(=O)Nc1cnc2nc(-c3cc(NC(=O)c4ccco4)ccc3Cl)[nH]c2c1 [Example 40, N-(4-chloro-3-{6-[2-(dimethylamino)acetamido]-1H-imidazo[4,5-b]pyridin-2-yl}phenyl)furan-2-carboxamide]	> 25 µM	8.5 µM
CN(C)/C=N/c1cnc2nc(-c3cc(NC(=O)c4ccco4)ccc3Cl)[nH]c2c1 [Example 50, N-(4-chloro-3-{6-[(E)-[(dimethylamino)methylidene]amino]-1H-imidazo[4,5-b]pyridin-2-yl}phenyl)furan-2-carboxamide]	6 µM	5.1 µM
CN(C)S(=O)(=O)Nc1cnc2nc(-c3cc(NC(=O)c4ccco4)ccc3Cl)[nH]c2c1 [Example 51, N-(4-chloro-3-{6-[(dimethylsulfamoyl)amino]-1H-imidazo[4,5-b]pyridin-2-yl}phenyl)furan-2-carboxamide]	> 25 µM	8.8 µM
